Patent publication US20230027495A1, “METHODS OF TREATING CANCER WITH A COMBINATION OF AN ANTI-PD-1 ANTIBODY AND AN ANTI-TISSUE FACTOR ANTIBODY-DRUG CONJUGATE” (Genmab A/S, priority 2019, published 2023)
“Also recorded” adds a separate entry of the source. Non-standard residues stand in square brackets, D forms with d. Residues, ends and D or L forms follow the SMILES beside them. *: point of attachment. Dolaproine = CO[C@@H]([C@@H]1CCCN1)[C@@H](C)C(=O)O; Dil = CC[C@H](C)[C@H](NC)[C@@H](CC(=O)O)OC; X1 = C[C@@H](N*)[C@@H](O)c1ccccc1; NMeV = CN[C@H](C(=O)O)C(C)C

Experiments:
[1] = test system: HPAFII (pancreatic carcinoma) and MDA-MB-231 (breast carcinoma) cells; assay: Western blot of ER stress pathways in HPAFII and MDA-MB-231 cells; type: cell-based
Method: Induction of cell death and release of ICD danger signals occurs concomitant with initiation of an ER stress response. Two Tissue Factor positive cell lines, HPAFII (pancreatic carcinoma) and MDA-MB-231 (breast cell carcinoma) were exposed to tisotumab vedotin ADC, an Isotype-MMAE ADC (H00-MMAE, IgG1 MMAE), or free MMAE for 18 hours and induction of ER stress monitored by western blot analysis. Phosphorylation of inositol-requiring transmembrane kinase/endonuclease 1 (IRE1) was detected after treatment with tisotumab vedotin ADC or MMAE free drug (FIG. 6). […] The ability for auristatins to prime the immune system to recognize tumor antigens opens the door for a myriad of combinatorial therapeutic options.

HeLa cells [2] = assay: ATP and HMGB1 secretion from MMAE-treated HeLa cells; type: cell-based; conditions: 100 nM MMAE, over 24 hours, vs untreated cells
Excerpt: Induction of ICD is also characterized by the secretion of ATP and HMGB1. Extracellular ATP serves as a strong chemotactic signal, promoting immune cell migration to the tumor site. Upon arrival, extracellular HMGB1 signals through various pro-inflammatory receptors (TLR2, TLR4, RAGE) to activate antigen-presenting cells, thereby promoting immune activity within the tumor.

[3] = test system: human peripheral blood mononuclear cells (PBMCs); assay: T cell activation in CSFE labeled human PBMCs fed drug-killed MDA-MB-231 cells, with or without pembrolizumab; type: cell-based
Excerpt: Induction of the innate immune response following exposure to cancer cells undergoing ICD sets up secondary T cell activation, which can be enhanced by concomitant pembrolizumab treatment.

[4] = test system: human peripheral blood mononuclear cells (PBMCs); assay: Monocyte/macrophage activation in human PBMCs fed drug-killed MDA-MB-231 cells; type: cell-based
Excerpt: FIGS. 7A and 7B is a series of graphs in which Tissue Factor positive MDA-MB-231 cells killed with various agents were fed to human peripheral blood mononuclear cells (PBMCs) and immune activation assessed by increased expression of activations markers on innate CD14+ monocyte/macrophages and induction of chemokine and cytokine production.
Immunogenic cell death, as mediated by MMAE, is regulated cell death that activates adaptive immune responses against antigens from dead and dying tumor cells, and allows for the generation of robust innate immune cell activation and subsequent cytotoxic T cell responses targeted towards specific tumor cell antigens. […] Furthermore, these monocyte/macrophages conditioned by ICD-killed cells promote activation of T cells, as evidenced by production of signature inflammatory cytokines associated with cytotoxic T cell responses.

HeLa cells [5] = assay: Imaging of RFP-tubulin microtubule network and ER in HeLa cells in the presence of MMAE; type: cell-based; conditions: 100 nM MMAE
Method: HeLa cells were transduced with a baculovirus encoding RFP-labeled Tubulin (CellLight Tubulin-RFP, ThermoFisher Scientific) and an ER-binding dye (ER-ID Green, Enzo Life Sciences). Cells were treated with 100 nM MMAE and imaged over time in the present of MMAE. Within 2 hours, fragmentation and disassembly of the microtubule network became evident, concurrent with the breakdown of the perinuclear organized ER lattice (FIGS. 2A and 2B). The condensed and mislocalized ER skeleton indicated severe ER stress within 8 hours.

[6] = test system: Tissue Factor positive cell lines; assay: Cell death and ATP/HMGB1 release from Tissue Factor positive cell lines; type: cell-based; conditions: Tissue Factor positive cells
Excerpt: Auristatin ADC payloads disrupt the microtubule networks resulting in altered ER localization and function, which ultimately results in ER stress.

HeLa cells [7] = assay: Western blot of ER stress (IRE1 and JNK phosphorylation) in MMAE-treated HeLa cells; type: cell-based; conditions: 100 nM MMAE, 16 hours
Method: HeLa cells, a cervical cancer cell line, were cultured in Minimum Essential Medium (MEM) with 10% FBS, 10 mM HEPES, 1 mM sodium pyruvate, 2 mM L-glutamine, penicillin (100U/ml), and streptomycin (100 μg/ml). HeLa cells were treated with 100 nM MMAE for 16 hours and harvested in radioimmunoprecipitation assay buffer (RIPA) buffer for western blot analysis. Treatment with MMAE led to phosphorylation of the serine threonine kinase IRE1, indicating activation of ER stress. Severe ER stress is a prerequisite to the exposure of pro-phagocytic signals on the surface of tumor cells, and can be indicated by activation of JNK signaling by phosphorylated IRE1.

[8] = test system: murine tumor cells that stably express human TF; assay: Immunization of Balb/c mice with drug-killed human TF positive murine tumor cells, then tumor challenge (syngeneic model); type: in vivo; conditions: mice immunized with drug-killed human TF positive tumor cells
Method: Mouse tumor cells are transfected with plasmid constructs encoding human tissue factor (TF) and sgRNA-guided Cas9 nuclease (sgRNA/Cas9) to generate a murine cell line that expresses the human TF. Fluorescence activated cell sorting (FACS) yields a clonal population of murine tumor cells that stably express human TF, these cells are then treated with 1 μg to 5 μg per ml of tisotumab vedotin or 100 nM of MMAE for 4 days. In order to prepare dying cells for immunization, treated murine tumor cells are overlaid atop Histopaque, and centrifuged at 2000 g for 30 minutes. Dead and dying cells are pelleted underneath the Histopaque layer, and viability assessed by trypan blue exclusion. A sample with approximately <20% live cells as measured by trypan blue exclusion is obtained. Flash-frozen tumor cells are prepared by submerging the cells in liquid nitrogen for 10 seconds, followed by immersion in 37° C. water until completely thawed. The liquid nitrogen freeze-thaw process is repeated 5 times. Dead and dying human TF positive tumor cells are resuspended in phosphate buffered saline (PBS) and 2×10^6 cells are injected into the peritoneum of immune-competent Balb/c mice. Seven days later, mice receive a second immunization with dead and dying cells prepared in the same manner.
Fourteen days after initial immunization with the dead and dying human TF positive tumor cells, mice are subcutaneously implanted with 5×10^6 wild-type tumor cells and monitored for tumor growth. […] As these effects occur in the absence of any administered therapeutic agent, the administration of cells killed by tisotumab vedotin or MMAE is sufficient to generate long-lasting protective immune memory against subsequent tumor cell challenge. Protective immune memory is amplified by treating these mice with tisotumab vedotin in combination with an antibody that binds to murine PD-1.

cervical cancer = conditions: cited from earlier work
MDA-MB-231 xenograft = MDA-MB-231 xenograft model in humanized NSG mice; type: in vivo; conditions: pembrolizumab alone, first dose 10 mg/kg, then 5 mg/kg every five days, IP
Method: The in vivo anti-tumor efficacy of tisotumab vedotin in combination with an anti-PD-1 monoclonal antibody was evaluated in NOD.Cg-PrkdC^scid Il2rg^tm1Wj1/SzJ (NSG) immunodeficient mice (The Jackson Laboratory, Stock No. 005557), humanized by engraftment with human CD34^+ hematopoietic stem cells (Jackson Laboratories, Sacramento). Mice were subcutaneously inoculated with 5×10^6 MDA-MB-231 cells (breast adenocarcinoma; American Tissue Culture Collection (ATCC), cat. no. HTB-26), in 100 μL phosphate-buffered saline (PBS). Before inoculation, cells were cultured in DMEM with high glucose and HEPES without L-glutamine (Lonza, cat. no. BE12-709F), 10% (v/v) donor bovine serum with iron New Zealand Origin (Thermo Fisher Scientific, DBSI, cat. no. 10371-029), 2 mM L-glutamine (Lonza, cat. no. BE17-605E), 1 mM Na-pyruvate (Lonza, cat. no. BE13-115E), MEM non-essential amino acids (Life Technologies, cat. no. 11140) and 1% (v/v) penicillin/streptomycin (Lonza, cat. no. DE17-603E), in CellSTACK culture chambers (Corning, cat. no. 3313).
Tumor size was determined by caliper measurement at least two times a week and tumor volume was calculated as 0.52×length×width^2. When tumors reached the size of 100 mm^3 mice were randomized in 7 groups (8 mice per treatment group) based on mouse cohort and tumor size (Table 1). Mice were treated with tisotumab vedotin alone (1 mg/kg or 0.5 mg/kg), intravenously, weekly for a maximum of five treatments, or in combination with an anti-PD-1 antibody (i.e., pembrolizumab, KEYTRUDA®, 50 mg concentrate, Merck & Co., Inc., Kenilworth, N.J. USA) or with anti-PD-1 antibody alone. The first dose of the anti-PD-1 antibody (i.e., pembrolizumab) was 10 mg/kg, followed by 5 mg/kg every five days for a maximum of six treatments. Mice in control groups were administered 1 mg/kg of IgG1 isotype control antibody or IgG1 isotype control antibody conjugated to MMAE intravenously, weekly for a maximum of five treatments (Table 1). The IgG1 isotype control antibody is the b12 antibody which is known to bind to HIV-1 gp120. […]

[9] = managed with interruptions of pembrolizumab, corticosteroids and/or other supportive care; cited from earlier work
[10] = HPAFII and MDA-MB-231 cells, 18 hours
[11] = PBMCs fed drug-exposed MDA-MB-231 cells, 48 hours

CC[C@H](C)[C@@H]([C@@H](CC(=O)N1CCC[C@H]1[C@H](OC)[C@@H](C)C(=O)N[C@H](C)[C@@H](O)c1ccccc1)OC)N(C)C(=O)[C@@H](NC(=O)[C@@H](NC)C(C)C)C(C)C [MMAE, Monomethyl auristatin E, reference compound] (H-[NMeV]V[Dil][Dolaproine]-X1)
activation of JNK (phosphorylation) [1, 10]: increased phosphorylation | activation of PERK pathway (ATF4 cleavage) [1, 10]: upregulation of ATF4 cleavage | phosphorylation of IRE1 [1, 10]: detected | activation of ER stress pathways (phosphorylation of IRE and JNK, cleavage of ATF4) ([1]; HPAFII or MDA-MB-231 cells, 16 hours): trigger multiple ER stress pathways | secretion of ATP (HeLa cells [2]): increased secretion | secretion of HMGB1 (HeLa cells [2]): increased secretion | T cell proliferation (CSFE dilution) [3, 11]: drove T cell proliferation | production of IFNγ [3, 11]: increased; also recorded: production of T cell specific cytokines | production of IL12p70 [3, 11]: increased; also recorded: production of T cell specific cytokines | monocyte/macrophage activation by CD86 expression ([4]; CD14+ monocyte/macrophages, flow cytometry, PBMCs fed killed MDA-MB-231 cells, compared to IgG1-MMAE ADC or tisotumab alone): drove monocyte/macrophage activations | release of innate chemokines ([4]; PBMCs fed killed MDA-MB-231 cells, compared to IgG1-MMAE ADC or tisotumab alone): induced release of innate chemokines including MIP10 | chemotactic and inflammatory mediators from monocyte/macrophages ([4]; after uptake of killed Tissue Factor positive cells): elicit strong chemotactic and inflammatory mediators | microtubule network and ER localization (HeLa cells [5]): led to disassembly of the microtubule network and subsequent ER mislocalization | time to fragmentation and disassembly of the microtubule network and breakdown of the ER lattice (HeLa cells [5]): ≤ 2 h | time to severe ER stress (condensed and mislocalized ER skeleton) (HeLa cells [5]): ≤ 8 h | ATP secretion/release [6]: drove robust A) ATP secretion; also recorded: specific to tisotumab vedotin ADC and MMAE treatment | HMGB1 release [6]: HMGB1 release; also recorded: specific to tisotumab vedotin ADC and MMAE treatment | phosphorylation of IRE1 and JNK (ER stress) (HeLa cells [7]): led to phosphorylation of both IRE1 and JNK; also recorded: elicited severe ER stress by phosphorylation of IRE1 and JNK | survival after challenge with wild-type tumor cells [8]: increased survival | tumor growth after challenge with wild-type tumor cells [8]: delayed tumor growth

pembrolizumab: anti-PD-1 monoclonal antibody, checkpoint inhibitor, also known as KEYTRUDA® [reference compound]
objective response rate (cervical cancer; 200 mg Q3W, 82 patients with previously treated, advanced cervical cancer): 12% | objective response rate (ORR) (cervical cancer; 2L+ PD-L1-positive recurrent or metastatic cervical cancer, 42% previously treated with bevacizumab): 14% | tumor burden as assessed by tumor volume (MDA-MB-231 xenograft): hardly reduced tumor burden | T cell proliferation driven by tisotumab vedotin or MMAE killed cells, effect of added pembrolizumab ([3]; 2 mg/ml of pembrolizumab, 48 hours): enhanced | cytokine production after tisotumab vedotin or MMAE killed cells, effect of concomitant pembrolizumab ([3]; IL12p70 and IFNγ, 48 hours): increased | secondary T cell responses after tisotumab vedotin induced ICD, effect of pembrolizumab ([3]; concomitant pembrolizumab treatment): can be amplified | reversibility of immune-related AEs (irAEs) [9]: most irAEs were reversible
